Experimental data published in ChEMBL document CHEMBL3784979, “Design, synthesis and biological evaluation of novel benzimidazole-2-substituted phenyl or pyridine propyl ketene derivatives as antitumour agents” (Eur J Med Chem, 2016).
Active and inactive are the calls of the source. The calls are words filed in the database; no cut-off is given here.

Tests used:
[1] = Antiproliferative activity against human HCT116 cells after 48 hrs by MTT assay; assay type: functional, cell-based; conditions: HCT-116, 48 h
MCF7 = test: Antiproliferative activity against human MCF7 cells after 48 hrs by MTT assay; assay type: functional, cell-based; conditions: MCF7, 48 h
HepG2 = test: Antiproliferative activity against human HepG2 cells after 48 hrs by MTT assay; assay type: functional, cell-based; conditions: HepG2, 48 h
HCT-116 [2] = test: Potency index, ratio of 5-fluorouracil IC50 to compound IC50 for human HCT116 cells; assay type: functional
[3] = Antiproliferative activity against p53 deficient human HCT116 cells after 48 hrs by MTT assay; assay type: functional, cell-based; conditions: HCT-116, 48 h
[4] = Cell cycle arrest in human HCT116 cells assessed as accumulation at G1 phase at 0.04 uM after 72 hrs by propidium iodide staining based flow cytometry (reference value: 31.72 +/- 2.21%); assay type: functional; conditions: HCT-116
[5] = Cell cycle arrest in human HCT116 cells assessed as accumulation at S phase at 0.04 uM after 72 hrs by propidium iodide staining based flow cytometry (reference value: 40.55 +/- 1.36%); assay type: functional; conditions: HCT-116
[6] = Cell cycle arrest in human HCT116 cells assessed as accumulation at G2 phase at 0.04 uM after 72 hrs by propidium iodide staining based flow cytometry (reference value: 27.73 +/- 3.56%); assay type: functional; conditions: HCT-116
[7] = target: T1, Tumour suppressor p53/oncoprotein Mdm2 (Homo sapiens) (UniProt P04637+Q00987); test: Inhibition of MDM2/P53 protein interaction in human HCT116 cells at 0.1 to 1 uM after 24 hrs by immunoprecipitation analysis; assay type: cell-based; conditions: HCT-116
[8] = Toxicity in ip dosed BALB/c mouse by bliss test; assay type: organism-based; conditions: in vivo
[9] = Antitumor activity against human HCT116 cells xenografted in BALB/c mouse assessed as tumor growth inhibition at 200 mg/kg, ip twice weekly for 4 weeks measured 24 hrs post last dose relative to control; assay type: functional; conditions: HCT-116, ip, read-out: TGI
HCT-116 [10] = test: Antitumor activity against human HCT116 cells xenografted in ip dosed BALB/c mouse assessed as tumor growth inhibition administered twice weekly for 4 weeks measured 24 hrs post last dose; assay type: functional, organism-based
Mus musculus [11] = test: Toxicity in BALB/c mouse assessed as change in body weight at 100 to 200 mg/kg, ip twice weekly for 4 weeks measured 24 hrs post last dose; assay type: organism-based; conditions: in vivo
[12] = Cell cycle arrest in human HCT116 cells assessed as accumulation at G1 phase at 0.58 uM after 72 hrs by propidium iodide staining based flow cytometry (reference value: 31.72 +/- 2.21%); assay type: functional; conditions: HCT-116
[13] = Cell cycle arrest in human HCT116 cells assessed as accumulation at S phase at 0.58 uM after 72 hrs by propidium iodide staining based flow cytometry (reference value: 40.55 +/- 1.36%); assay type: functional; conditions: HCT-116
[14] = Cell cycle arrest in human HCT116 cells assessed as accumulation at G2 phase at 0.58 uM after 72 hrs by propidium iodide staining based flow cytometry (reference value: 27.73 +/- 3.56%); assay type: functional; conditions: HCT-116
[15] = target: T1, Tumour suppressor p53/oncoprotein Mdm2 (Homo sapiens); test: Inhibition of MDM2/P53 protein interaction in human HCT116 cells at 0.5 to 5 uM after 24 hrs by immunoprecipitation analysis; assay type: cell-based; conditions: HCT-116
[16] = Cell cycle arrest in human HCT116 cells assessed as accumulation at G1 phase after 72 hrs by propidium iodide staining based flow cytometry (reference value: 31.72 +/- 2.21%); assay type: functional; conditions: HCT-116
[17] = Cell cycle arrest in human HCT116 cells assessed as accumulation at S phase after 72 hrs by propidium iodide staining based flow cytometry (reference value: 40.55 +/- 1.36%); assay type: functional; conditions: HCT-116
[18] = Cell cycle arrest in human HCT116 cells assessed as accumulation at G2 phase after 72 hrs by propidium iodide staining based flow cytometry (reference value: 27.73 +/- 3.56%); assay type: functional; conditions: HCT-116
[19] = Antitumor activity against human HCT116 cells xenografted in BALB/c mouse assessed as tumor growth inhibition at 12.5 mg/kg, ip twice weekly for 4 weeks measured 24 hrs post last dose relative to control; assay type: functional; conditions: HCT-116, ip, read-out: TGI
Mus musculus [20] = test: Toxicity in BALB/c mouse assessed as reduction in body weight at 12.5 mg/kg, ip twice weekly for 4 weeks measured 24 hrs post last dose; assay type: organism-based; conditions: in vivo
[21] = Cell cycle arrest in human HCT116 cells assessed as accumulation at G1 phase at 0.06 uM after 72 hrs by propidium iodide staining based flow cytometry (reference value: 31.72 +/- 2.21%); assay type: functional; conditions: HCT-116
[22] = Cell cycle arrest in human HCT116 cells assessed as accumulation at S phase at 0.06 uM after 72 hrs by propidium iodide staining based flow cytometry (reference value: 40.55 +/- 1.36%); assay type: functional; conditions: HCT-116
[23] = Cell cycle arrest in human HCT116 cells assessed as accumulation at G2 phase at 0.06 uM after 72 hrs by propidium iodide staining based flow cytometry (reference value: 27.73 +/- 3.56%); assay type: functional; conditions: HCT-116

T1 sequence (P04637 whole entry, looked up): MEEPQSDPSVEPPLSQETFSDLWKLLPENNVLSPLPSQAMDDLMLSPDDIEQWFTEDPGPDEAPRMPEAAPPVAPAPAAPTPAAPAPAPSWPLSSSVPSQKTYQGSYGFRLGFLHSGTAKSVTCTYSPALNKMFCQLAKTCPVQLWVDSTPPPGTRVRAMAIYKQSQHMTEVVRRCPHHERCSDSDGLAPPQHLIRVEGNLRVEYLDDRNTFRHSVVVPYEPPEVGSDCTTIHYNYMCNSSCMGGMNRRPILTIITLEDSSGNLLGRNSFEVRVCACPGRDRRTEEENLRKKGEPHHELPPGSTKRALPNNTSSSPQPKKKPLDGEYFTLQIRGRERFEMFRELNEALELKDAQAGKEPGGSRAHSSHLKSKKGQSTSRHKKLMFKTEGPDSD
T1 sequence (Q00987 whole entry, looked up): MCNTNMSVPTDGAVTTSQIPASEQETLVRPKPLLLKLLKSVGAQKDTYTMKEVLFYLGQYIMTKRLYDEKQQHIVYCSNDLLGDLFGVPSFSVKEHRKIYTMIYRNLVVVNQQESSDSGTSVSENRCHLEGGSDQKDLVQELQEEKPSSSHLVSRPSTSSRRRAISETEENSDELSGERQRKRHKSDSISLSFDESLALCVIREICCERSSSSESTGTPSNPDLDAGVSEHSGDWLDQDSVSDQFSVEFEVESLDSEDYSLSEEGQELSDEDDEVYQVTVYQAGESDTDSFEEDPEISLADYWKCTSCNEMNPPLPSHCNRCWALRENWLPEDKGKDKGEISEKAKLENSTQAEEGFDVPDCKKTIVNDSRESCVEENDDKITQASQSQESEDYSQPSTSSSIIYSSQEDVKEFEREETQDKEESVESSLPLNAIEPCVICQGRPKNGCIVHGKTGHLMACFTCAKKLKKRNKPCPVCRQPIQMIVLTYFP

COc1cccc(/C=C/C(=O)c2nc3ccccc3o2)c1
IC50 [1]: > 100 µM | IC50 (MCF7): > 100 µM | IC50 (HepG2): > 100 µM

OC(/C=C/c1cccc(Cl)c1)c1nc2ccccc2[nH]1 (stereo not drawn)
IC50 [1]: > 100 µM | IC50 (MCF7): > 100 µM | IC50 (HepG2): > 100 µM

O=C(/C=C/c1cccc(Cl)c1)c1nc2ccccc2[nH]1
IC50 [1]: 0.03 µM | IC50 (MCF7): 9.8 µM | IC50 (HepG2): 0.75 µM | Ratio IC50 (HCT-116 [2]): 950 | IC50 [3]: 1.95 µM | Activity [4]: 65% | Activity [5]: 17.2% | Activity [6]: 17.8% | inhibition [7]: Active | LD50 [8]: 692 mg/kg | inhibition in vivo at 200 mg/kg [9]: 74.6% | TGI (HCT-116 [10]): Dose-dependent effect | Activity (Mus musculus [11]): Non-toxic

COc1cccc(/C=C/C(=O)c2nc3ccccc3[nH]2)c1
IC50 [1]: 0.58 µM | IC50 (MCF7): 21.7 µM | IC50 (HepG2): 5.68 µM | IC50 [3]: 4.75 µM | Activity [12]: 60.5% | Activity [13]: 19% | Activity [14]: 20.5% | LD50 [8]: 1220 mg/kg | TGI (HCT-116 [10]): Dose-dependent effect | Activity (Mus musculus [11]): Non-toxic | inhibition [15]: Active

O=C(CCc1ccccn1)c1nc2ccccc2[nH]1
IC50 [1]: > 100 µM | IC50 (MCF7): > 100 µM | IC50 (HepG2): > 100 µM

O=C(/C=C/c1ccccn1)c1nc2ccccc2o1
IC50 [1]: > 100 µM | IC50 (MCF7): > 100 µM | IC50 (HepG2): > 100 µM

O=c1[nH]cc(F)c(=O)[nH]1 [FLUOROURACIL]
IC50 [1]: 57 µM | IC50 (MCF7): 223 µM | IC50 (HepG2): 174 µM

COc1ccc(C2=N[C@H](c3ccc(Cl)cc3)[C@H](c3ccc(Cl)cc3)N2C(=O)N2CCNC(=O)C2)c(OC(C)C)c1
Activity [16]: 62.5% | Activity [17]: 24.8% | Activity [18]: 12.7%

COc1cccc(/C=C/C(O)c2nc3ccccc3[nH]2)c1 (stereo not drawn)
IC50 [1]: > 100 µM | IC50 (MCF7): > 100 µM | IC50 (HepG2): > 100 µM

O=C(/C=C/c1ccncc1)c1nc2ccccc2[nH]1
IC50 [1]: 0.71 µM | IC50 (MCF7): 20.9 µM | IC50 (HepG2): 6.94 µM | IC50 [3]: 5.61 µM

Cc1ccccc1/C=C/C(=O)c1nc2ccccc2[nH]1
IC50 [1]: 0.86 µM | IC50 (MCF7): 62.5 µM | IC50 (HepG2): 6.71 µM | IC50 [3]: 4.39 µM

CCc1c2c(nc3ccc(OC(=O)N4CCC(N5CCCCC5)CC4)cc13)-c1cc3c(c(=O)n1C2)COC(=O)[C@]3(O)CC [IRINOTECAN]
inhibition in vivo at 12.5 mg/kg [19]: 70.2% | Activity (Mus musculus [20]): 3.66 g

O=C(/C=C/c1ccccn1)c1nc2ccccc2[nH]1
IC50 [1]: 0.06 µM | IC50 (MCF7): 3.64 µM | IC50 (HepG2): 0.34 µM | Ratio IC50 (HCT-116 [2]): 950 | IC50 [3]: 1.45 µM | Activity [21]: 64.5% | Activity [22]: 18.9% | Activity [23]: 16.6% | inhibition [7]: Active | LD50 [8]: 634 mg/kg | TGI (HCT-116 [10]): Dose-dependent effect | Activity (Mus musculus [11]): Non-toxic

COc1cccc(/C=C/C(=O)c2nc3ccccc3s2)c1
IC50 [1]: > 100 µM | IC50 (MCF7): > 100 µM | IC50 (HepG2): > 100 µM

OC(/C=C/c1ccccn1)c1nc2ccccc2[nH]1 (stereo not drawn)
IC50 [1]: > 100 µM | IC50 (MCF7): > 100 µM | IC50 (HepG2): > 50 µM

O=C(/C=C/c1ccccn1)c1nc2ccccc2s1
IC50 [1]: > 100 µM | IC50 (MCF7): > 100 µM | IC50 (HepG2): > 100 µM

CC(=O)O[C@H]1C(=O)[C@@]2(C)[C@H]([C@H](OC(=O)c3ccccc3)[C@]3(O)C[C@H](OC(=O)[C@H](O)[C@@H](NC(=O)c4ccccc4)c4ccccc4)C(C)=C1C3(C)C)[C@]1(OC(C)=O)CO[C@@H]1C[C@@H]2O [PACLITAXEL]
IC50 [1]: 0.0673 µM | IC50 (HepG2): 0.0217 µM

O=C(/C=C/c1ccccc1Br)c1nc2ccccc2[nH]1
IC50 [1]: 16.4 µM | IC50 (MCF7): 50.9 µM | IC50 (HepG2): 29.2 µM

COc1ccc(/C=C/C(=O)c2nc3ccccc3[nH]2)cc1
IC50 [1]: 13.1 µM | IC50 (MCF7): > 100 µM | IC50 (HepG2): 7.41 µM

O=C(/C=C/c1cccc(Br)c1)c1nc2ccccc2[nH]1
IC50 [1]: 0.79 µM | IC50 (MCF7): 19.3 µM | IC50 (HepG2): 1.59 µM | IC50 [3]: 2.94 µM

COc1ccccc1/C=C/C(=O)c1nc2ccccc2[nH]1
IC50 [1]: 4.79 µM | IC50 (MCF7): 41.3 µM | IC50 (HepG2): 7.99 µM

O=C(/C=C/c1ccc(Br)cc1)c1nc2ccccc2[nH]1
IC50 [1]: 19.6 µM | IC50 (MCF7): 52.7 µM | IC50 (HepG2): 10.9 µM

O=C(/C=C/c1ccccc1)c1nc2ccccc2[nH]1
IC50 [1]: 0.2 µM | IC50 (MCF7): 39.8 µM | IC50 (HepG2): 6.3 µM | IC50 [3]: 2.07 µM

O=C(/C=C/c1cccnc1)c1nc2ccccc2[nH]1
IC50 [1]: 15.3 µM | IC50 (MCF7): 21.7 µM | IC50 (HepG2): 8.48 µM

O=C(/C=C/c1ccc(Cl)cc1)c1nc2ccccc2[nH]1
IC50 [1]: 6.79 µM | IC50 (MCF7): 24.8 µM | IC50 (HepG2): 12.5 µM

O=C(/C=C/c1cccc(Cl)c1)c1nc2ccccc2s1
IC50 [1]: > 100 µM | IC50 (MCF7): > 100 µM | IC50 (HepG2): > 100 µM

O=C(/C=C/c1cccc(Cl)c1)c1nc2ccccc2o1
IC50 [1]: > 100 µM | IC50 (MCF7): > 100 µM | IC50 (HepG2): > 100 µM

O=C(CCc1cccc(Cl)c1)c1nc2ccccc2[nH]1
IC50 [1]: > 100 µM | IC50 (MCF7): > 100 µM | IC50 (HepG2): > 100 µM
